The results in this text go back to patent US20130178472A1, “ARYLSULFONAMIDE PYRIDINE-PYRIDINONE DERIVATIVES, PREPARATION OF SAME, AND THERAPEUTIC USE THEREOF” (SANOFI, priority 2010, published 2013).

The target in series [1] is T1, active mutant recombinant S6K1 (1-421, T412E) (Homo sapiens, UniProt P23443, T412E).
T1 construct: S6K1 (1-421, T412E); purchased Upstate USA, Inc. Charlottesville Va; 14-333
Kind of series: Inhibition of p70S6 kinase activity: phosphorylation of S6 peptide substrate, [γ-33]ATP filter assay. The format is biochemical. The note with it: peptide AKRRRLSSLRA 50 μM, ATP 100 μM, 20 minutes at 30° C.; read-out: IC50, concentration which inhibits 50% of the phosphorylation of the peptide substrate derived from the S6 ribosomal protein. The text has this: (§1) The inhibitory activity on the PDGF receptor kinases is given by the concentration which inhibits 50% of the proliferation activity of Baf3 tel/PDGF cells respectively. The inhibitory activity on p70S6 kinase is given by the concentration which inhibits 50% of the phosphorylation of the peptide substrate derived from the S6 ribosomal protein (AKRRRLSSLRA, Upstate).
Measurement of the inhibition of the p70S6 kinase activity:
The active mutant recombinant S6K1 (1-421, T412E) (ref. 14-333, Upstate USA, Inc. Charlottesville Va.) (specific activity 298 U/mg) is incubated (20 mU/10 μl) with 8 concentrations of inhibitors solubilized at 1 mM in DMSO in the presence of the peptide substrate obtained from the S6 ribosomal protein (AKRRRLSSLRA, Upstate) (50 μM final) and of a cold ATP mixture (100 μM) and 1 μCi/well of [γ-33]ATP (NEN, Courtaboeuf, France). The enzyme reaction is carried out in a final volume of 50 μl in a 96-well filter plate (MultiScreen TM-PH opaque plate with Phospho-Cellulose cat # MAPHNOB, Millipore) previously soaked with 100 μl 1M Tris buffer pH 7.4 by adding the reagents of the S6 Kinase Assay kit (#17-136, Upstate) in the following order:
10 μl of 5% DMSO or various inhibitors at a 5× concentration
30 μl of reaction mixture containing the ADBI buffer (#20-108 Upstate, composed of 20 mM MOPS pH 7.2, 25 mM beta-glycerol phosphate, 5 mM EGTA, 1 mM sodium orthovanadate, 1 mM dithiothreitol), S6K1 (20 mU) and 250 μM peptide substrate [AKRRRLSSLRA] in ADBI buffer (#20-122, Upstate). The reaction is started by adding 10 μl of cold ATP/^33γATP mixture (1 μCi/50 μl as 500 μM ATP in ADBI buffer, 75 mM MgCl2) and then incubated for 20 minutes at 30° C. before being stopped by adding 20 μl of 7.5% phosphoric acid. The reaction mixture is filtered by aspiration under vacuum (Vacuum manifold, Millipore), the wells are rinsed twice with 200 μl of 7.5% phosphoric acid (2 minutes) and then twice with 200 μl of distilled H2O (2 minutes). After drying the plate, 25 μl/well of scintillant (Optiphase Super Mix, Wallac) are added and the radioactivity is detected with the Micro-Beta scintillation reader (Wallac). A negative control (all the reagents without peptide substrate) is prepared in order to determine the nonspecific binding of ^33γATP to the phosphocellulose filter which is subtracted from the experimental results.
It is thus apparent that the compounds of the invention have an inhibitory activity on the p70S6 kinase activity. This activity is given by the concentration which inhibits 50% of the phosphorylation of the peptide substrate derived from the S6 ribosomal protein (AKRRRLSSLRA, Upstate).

The target of series [2] is T2, fusion protein Tel/PDGF-R beta (BaF3 Tel/PDGF cells) (Homo sapiens, UniProt P09619).
T2 construct: the transmembrane and intracellular part of the PDGF-R beta receptor; N-terminal part of transcription factor Tel (ETV6, own knowledge: UniProt P41212), containing the oligomerization domain; expressed in transfected cells; host or cells: murine hematopoietic cell line BaF/3 (BaF3 Tel/PDGF); the other entry of the earlier key: ETV6 (P41212, Transcription factor ETV6)
T2 sequence (P09619 with tags, fused parts or gaps): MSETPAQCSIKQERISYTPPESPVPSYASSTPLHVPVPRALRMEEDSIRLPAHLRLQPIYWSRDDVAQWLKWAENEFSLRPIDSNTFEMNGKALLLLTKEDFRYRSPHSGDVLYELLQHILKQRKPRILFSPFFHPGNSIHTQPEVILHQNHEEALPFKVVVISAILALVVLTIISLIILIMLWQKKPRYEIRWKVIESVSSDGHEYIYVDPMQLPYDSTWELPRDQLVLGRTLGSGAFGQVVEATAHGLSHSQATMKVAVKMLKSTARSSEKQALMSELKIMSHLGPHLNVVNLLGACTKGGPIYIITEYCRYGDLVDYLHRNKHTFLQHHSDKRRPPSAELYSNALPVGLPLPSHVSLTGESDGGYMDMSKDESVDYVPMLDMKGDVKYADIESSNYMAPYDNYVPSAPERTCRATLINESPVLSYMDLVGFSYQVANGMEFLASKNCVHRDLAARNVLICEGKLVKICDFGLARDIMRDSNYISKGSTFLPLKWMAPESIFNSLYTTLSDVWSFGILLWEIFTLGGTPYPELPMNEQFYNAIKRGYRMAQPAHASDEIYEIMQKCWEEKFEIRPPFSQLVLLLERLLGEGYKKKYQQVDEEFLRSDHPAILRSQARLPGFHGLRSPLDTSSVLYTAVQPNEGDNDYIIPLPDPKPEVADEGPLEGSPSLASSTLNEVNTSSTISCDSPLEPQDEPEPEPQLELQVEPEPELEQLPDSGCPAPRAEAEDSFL
Kind of series: Inhibition of PDGF beta receptor tyrosine kinase activity: proliferation of BaF3 Tel/PDGF cells. It is filed as cell-based, murine. The note with it: 72 h incubation, viable cells by cellular ATP (CellTiter-Glo); read-out: IC50, concentration which inhibits 50% of the proliferation of the Baf3 tel/PDGF cells.
Source text: as §1
Measurement of the inhibition of the PDGF beta receptor (PDGF-Rβ) tyrosine kinase activity (Baf-3 tel/PDGFRβ):
This test consists in evaluating the effects of the compounds on the PDGF beta receptor tyrosine kinase activity.
The inhibitory effect of the compounds according to the invention toward the PDGF-R receptor tyrosine kinase activity was evaluated on the hematopoietic murine cell line BaF/3 transfected with a plasmid encoding the fusion protein Tel/PDGF-R beta. This fusion protein is found in chronic myelomonocytic myeloid leukemias (CMML). It comprises the N-terminal part of the transcription factor Tel and the transmembrane and intracellular part of the PDGF-R beta receptor. This fusion protein is present in dimerized form (presence of an oligomerization domain in the N-terminal part of Tel) and therefore leads to the constitutive activity of the PDGF-R beta kinase domain. This BaF3 Tel/PDGF line has been described in the literature several times and in particular in detail in the article by CARROLL, M. et al., PNAS, 1996, 93, 14845-14850, CARROLL, M. et al., Blood 2002, 99, 14845-14850.
The BaF3 Tel/PDGF cells are washed with phosphate buffer and inoculated in 96-well plates, at the density of 5×10^4 cells/ml ([…]), in RPMI 1640 containing 10% FCS, in the presence or absence of the compounds to be tested. After 72 h of incubation, the viable cells are quantified by measuring the cellular ATP using the kit CellTiter-Glo®(Promega, Cat G7571). The cells are treated according to the instructions given by the kit supplier and the luminescence is measured with the aid of a Luminoskan (Ascent, Labsystem) with the following parameters: measurement: single; integration time: 1000 ms, lag time: 5 s.
It is thus apparent that the compounds according to the invention have an inhibitory activity on the PDGF-R beta tyrosine kinase activity. This activity is given by the concentration which inhibits 50% of the proliferation of the Baf3 tel/PDGF cells (IC50).

T1 sequence (P23443 1-421 T412E): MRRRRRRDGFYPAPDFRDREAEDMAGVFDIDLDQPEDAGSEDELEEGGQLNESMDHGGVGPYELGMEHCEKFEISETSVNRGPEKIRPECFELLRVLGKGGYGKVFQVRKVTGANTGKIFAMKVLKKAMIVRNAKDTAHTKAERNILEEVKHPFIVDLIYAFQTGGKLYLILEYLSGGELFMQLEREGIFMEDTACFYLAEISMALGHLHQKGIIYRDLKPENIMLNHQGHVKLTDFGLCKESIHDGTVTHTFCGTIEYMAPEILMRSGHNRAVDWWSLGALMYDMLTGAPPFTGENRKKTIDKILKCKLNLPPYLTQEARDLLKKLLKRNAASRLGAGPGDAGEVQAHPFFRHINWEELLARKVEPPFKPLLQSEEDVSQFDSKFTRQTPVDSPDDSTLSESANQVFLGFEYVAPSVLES

For orientation: melting point means the temperature of the solid-liquid transition. For the compound `CCn1c(N)c(C(=O)NC)c(=O)c2ccc(-c3ccc(NS(=O)(=O)c4cccc(Cl)c4Cl)cc3F)nc21` [compound No. 14, 2-amino-7-(4-{[(2,3-dichlorophenyl)sulfonyl]amino}-2-fluorophenyl)-1-ethyl-N-methyl-4-oxo-1,4-dihydro-1,8-naphthyridine-3-carboxamide], the melting point came to 340 °C. For the same compound, in series [1], the IC50 was 224 nM.
The corresponding values for `CCn1c(N)c(C(=O)NC)c(=O)c2ccc(-c3ccc(NS(=O)(=O)c4cccc(Cl)c4Cl)c(Cl)c3)nc21` [compound No. 8, 2-amino-7-(3-chloro-4-{[(2,3-dichlorophenyl)sulfonyl]amino}phenyl)-1-ethyl-N-methyl-4-oxo-1,4-dihydro-1,8-naphthyridine-3-carboxamide] are 311 °C and 412 nM.
With `CCn1c(N)c(C(=O)NC)c(=O)c2ccc(-c3ccc(NS(=O)(=O)c4cccc(Cl)c4Cl)c(F)c3)nc21` [compound No. 18, 2-amino-7-(4-{[(2,3-dichlorophenyl)sulfonyl]amino}-3-fluorophenyl)-1-ethyl-N-methyl-4-oxo-1,4-dihydro-1,8-naphthyridine-3-carboxamide], the melting point stood at 333 °C. Besides, in series [2], the IC50 came to 12 nM. Besides, the IC50 in series [1] came out at 132 nM.
Regarding `CCn1c(N)c(C(=O)NC)c(=O)c2ccc(-c3ccc(NS(=O)(=O)c4cc(Cl)ccc4Cl)c(F)c3)nc21` [compound No. 9, 2-amino-7-(4-{[(2,5-dichlorophenyl)sulfonyl]amino}-3-fluorophenyl)-1-ethyl-N-methyl-4-oxo-1,4-dihydro-1,8-naphthyridine-3-carboxamide], the melting point turned out to be 230 °C. Besides, in series [1], the IC50 was determined as 240 nM.
In the case of `CCn1c(N)c(C(=O)NC)c(=O)c2ccc(-c3ccc(NS(=O)(=O)c4ccccc4F)c(F)c3)nc21` [compound No. 20, 2-amino-1-ethyl-7-(3-fluoro-4-{[(2-fluorophenyl)sulfonyl]amino}phenyl)-N-methyl-4-oxo-1,4-dihydro-1,8-naphthyridine-3-carboxamide], the melting point was more than 260 °C. Further, the IC50 in series [2] came to 280 nM.
